PMC5986646
Counter-ions that a name gives are not always drawn. Like-named read-outs stand apart in the source and are kept apart here. Square brackets hold non-standard residues; d marks the D form. Peptide text beside a SMILES is read from it. dLac(3-vinyl) = C=CC[C@@H](O)C(=O)O; dHica = CC(C)C[C@@H](O)C(=O)O; NMeV = CN[C@H](C(=O)O)C(C)C; NMeA = CN[C@@H](C)C(=O)O; βAla = NCCC(=O)O

What was measured:
HCT116/dtxE cells [1] = assay: Cell viability assay (MTT, EZ4U); type: cell-based, human; details: for IC50: HCT116/dtxE, about one year of selection, MTT, mean (± SD), n ≥ 3; for relative resistance: mean IC50 HCT116/dtxE divided by IC50 HCT116/wt
HCT116/dtxA cells [2] = assay: Cell viability assay (MTT, EZ4U); type: cell-based, human; details: for IC50: n ≥ 3
HCT116/dtxB cells = assay: Cell viability assay (MTT, EZ4U); type: cell-based, human; details: for IC50: n ≥ 3
HCT116/wt cells [3] = assay: Cell viability assay (MTT, EZ4U); type: cell-based, human; details: mean (± SD) of at least three independent experiments in triplicates
HeLa cell derivative = tested on: HeLa cell derivative; design: method as in PMID 19517454; details: 18 months selection period of a HeLa cell derivative; cited from earlier work
HCT116/wt cells [4] = assay: JC-1 mitochondrial membrane depolarization; type: cell-based, human; details: parental cells, 48 h, JC-1, FACS
Experimental: (§1) Parental and dtx-resistant cells were seeded (1x10^5 cells/well in 6-well plates) and treated on the following day for 48 h with the indicated concentrations of dtxA, dtxB or dtxE. Next, the mitochondrial membrane potential (ΔΨm) was measured. In doing so, cells were detached by trypsinization, centrifuged with 300× g for 5 min at 4°C and stained with the fluorescent dye JC-1 (5,5’,6,6’-tetrachloro-1,1’,3’,3’-tetraethyl-benzimidazolylcarbocyanine iodide) for 10 min at 37°C. FACS analysis was performed according to the manufacturer’s instructions (Mitochondrial Membrane Potential detection Kit; Stratagene, La Jolla, CA, USA). To further compare apoptotic changes in the parental and resistant cells, Annexin V-APC/PI stainings were carried out.

[5] = tested on: resistant sublines (HCT116/dtxA, HCT116/dtxB, HCT116/dtxE); assay: JC-1 mitochondrial membrane depolarization; type: cell-based, human; details: each destruxin in its respective resistant subline, 48 h, JC-1, FACS
Experimental: as §1

HCT116/wt cells [6] = assay: Annexin-V/PI staining (apoptosis/necrosis); type: cell-based, human; details: 48 h, 5 μM dtxA, 2.5 μM dtxB, dtxE around the IC50 value, FACS
HCT116/wt cells [7] = assay: Whole-cell patch clamp, ionophoric activity; type: cell-based, human; details: parental HCT116/wt, 20 μM dtxA, whole-cell mode, membrane potential -60 mV, RT
Experimental: (§2) Ionophoric activity of dtxA, dtxB and dtxE was determined by patch clamp experiments, performed as previously described. Briefly, ionic currents were recorded in whole-cell mode at RT. Glass electrodes with a resistance less than 5 MΩ were pulled with a DMZ universal puller and filled with intracellular solution (120 mM CsF, 20 mM CsCl, 5 mM EGTA, 5 mM HEPES; pH 7.4). HCT116/wt or resistant cells were perfused with extracellular solution (140 mM NaCl, 4 mM KCl, 1.8 mM CaCl2, 0.75 mM MgCl2, 5 mM HEPES; pH 7.4) in a 1 mL chamber. After obtaining a whole-cell configuration, cells were allowed to equilibrate for 5 min before recording any currents and then pulsed to -60 mV for 10 sec pulses. Data were filtered at 5 kHz and digitized at 10 kHz by using digidata 1440A. Traces were averaged and subtracted from control recording, in the presence or absence of 20 μM dtxA, dtxB or dtxE, to observe ionophoric activity.

HCT116/dtxA cells [8] = assay: Whole-cell patch clamp, ionophoric activity; type: cell-based, human; details: resistant HCT116/dtxA, 20 μM dtxA, whole-cell mode, membrane potential -60 mV, RT
Experimental: as §2

HCT116/dtxA cells [9] = assay: Cell viability, dtxA combined with mevalonate pathway inhibitors, combination index; type: cell-based, human
MCF7 = assay: Cell viability, dtxA combined with mevalonate pathway inhibitors; type: cell-based, human; details: MCF7, intrinsically low sensitivity, inhibitor with dtxA, 72 h
parental HCT116 = assay: as above; type: cell-based, human; details: parental HCT116, inhibitor with dtxA, 72 h
BT20 = assay: as above; type: cell-based, human; details: BT20, intrinsically low sensitivity, inhibitor with dtxA, 72 h
HCT116/dtxE cells [10] = details: 10 μM verapamil or 1 μM cyclosporin A with increasing dtxE
[11] = HCT116/dtxA, about one year of selection, 72 h, MTT, mean (± SD)
[12] = HCT116/dtxB, about one year of selection, 72 h, MTT, mean (± SD)
[13] = mean IC50 HCT116/dtxA divided by IC50 HCT116/wt
[14] = mean IC50 HCT116/dtxB divided by IC50 HCT116/wt
[15] = HCT116/dtxA, inhibitor 24 h pretreatment, then dtxA 72 h, statins at concentrations above 2.5 μM, Chou-Talalay, CalcuSyn, CI < 1 synergism

## O=c1[nH]cc(F)c(=O)[nH]1 [5-FU]
HCT116/dtxE cells [1]; 72 h
  IC50: 34700 nM
HCT116/dtxA cells [2]; [11]
  IC50: 36400 nM
HCT116/dtxB cells; [12]
  IC50: 38900 nM
HCT116/wt cells [3]; 72 h
  IC50: 52000 nM

## CC(C)[C@H]1OC(=O)[C@H](Cc2ccccc2)N(C)C(=O)[C@@H](C(C)C)OC(=O)[C@H](Cc2ccccc2)N(C)C(=O)[C@@H](C(C)C)OC(=O)[C@H](Cc2ccccc2)N(C)C1=O [Beauvericin]
HeLa cell derivative
  resistance obtained: no resistance

## N.N.[Cl][Pt][Cl] [Cisplatin]
HCT116/dtxE cells [1]; 72 h
  IC50: 4400 nM
HCT116/dtxA cells [2]; [11]
  IC50: 1900 nM
HCT116/dtxB cells; [12]
  IC50: 2200 nM
HCT116/wt cells [3]; 72 h
  IC50: 4000 nM

## Nc1ccn([C@@H]2O[C@H](CO)[C@@H](O)C2(F)F)c(=O)n1 [Gemcitabin]
HCT116/dtxE cells [1]; 72 h
  IC50: 300 nM
HCT116/dtxA cells [2]; [11]
  IC50: 400 nM
HCT116/dtxB cells; [12]
  IC50: 400 nM
HCT116/wt cells [3]; 72 h
  IC50: 400 nM

## O=C1[O][Pt]2([NH][C@@H]3CCCC[C@H]3[NH]2)[O]C1=O [Oxaliplatin]
HCT116/dtxE cells [1]; 72 h
  IC50: 400 nM
HCT116/dtxA cells [2]; [11]
  IC50: 500 nM
HCT116/dtxB cells; [12]
  IC50: 1000 nM
HCT116/wt cells [3]; 72 h
  IC50: 800 nM

## CC[C@@]1(O)C(=O)OCc2c1cc1n(c2=O)Cc2cc3c(CN(C)C)c(O)ccc3nc2-1 [Topotecan]
HCT116/dtxE cells [1]; Homo sapiens, HCT-116, 72 h
  IC50: 25 nM
HCT116/dtxA cells [2]; Homo sapiens, HCT-116, HCT116/dtxA, about one year of selection, 72 h, MTT, mean (± SD)
  IC50: 26 nM
HCT116/dtxB cells; Homo sapiens, HCT-116, HCT116/dtxB, about one year of selection, 72 h, MTT, mean (± SD)
  IC50: 8.2 nM
HCT116/wt cells [3]; Homo sapiens, HCT-116, 72 h
  IC50: 27.4 nM

## NC(=S)N/N=C/c1ncccc1N [Triapin]
HCT116/dtxE cells [1]; 72 h
  IC50: 800 nM
HCT116/dtxA cells [2]; [11]
  IC50: 600 nM
HCT116/dtxB cells; [12]
  IC50: 800 nM
HCT116/wt cells [3]; 72 h
  IC50: 800 nM

## C=CC[C@H]1OC(=O)CCNC(=O)[C@H](C)N(C)C(=O)[C@H](C(C)C)N(C)C(=O)[C@H]([C@@H](C)CC)NC(=O)[C@@H]2CCCN2C1=O [dtxA, destruxin A] (cyclo([dLac(3-vinyl)]PI[NMeV][NMeA][βAla]))
HCT116/dtxE cells [1]
  relative resistance: 0.3 -fold
HCT116/wt cells [4]
  mitochondrial membrane depolarization: only observed in parental cells
[5]
  mitochondrial membrane depolarization: no significant increase
HCT116/wt cells [6]
  percentages of early and/or late apoptotic cells: markedly and significantly increased
HCT116/dtxA cells [2]; HCT116/dtxA (unsel.), removed from drug selection for one month, 72 h, mean
  IC50: > 100000 nM
HCT116/dtxA cells [2]; HCT116/dtxA vs HCT116/wt, month 6 after selection start
  relative resistance: 3.5 -fold
HCT116/dtxA cells [2]; HCT116/dtxA vs HCT116/wt, month 8 after selection start
  relative resistance: > 20 -fold
HCT116/dtxA cells [2]; [11]
  IC50: > 100000 nM
HCT116/dtxA cells [2]; [13]
  relative resistance: >28.6 -fold
HCT116/dtxB cells; [14]
  relative resistance: 21.8 -fold
HCT116/wt cells [7]
  mean total current (pore forming ability): -0.7 pA/ms
HCT116/dtxA cells [8]
  mean total current (pore forming ability): -0.2 pA/ms

## CC[C@H](C)[C@@H]1NC(=O)[C@@H]2CCCN2C(=O)[C@@H](CC(C)C)OC(=O)CCNC(=O)[C@H](C)N(C)C(=O)[C@H](C(C)C)N(C)C1=O [dtxB, destruxin B] (cyclo([dHica]PI[NMeV][NMeA][βAla]))
HCT116/dtxE cells [1]
  relative resistance: 0.3 -fold
HCT116/wt cells [4]
  mitochondrial membrane depolarization: only observed in parental cells
[5]
  mitochondrial membrane depolarization: no significant increase
HCT116/wt cells [6]
  percentages of early and/or late apoptotic cells: markedly and significantly increased
HCT116/dtxA cells [2]; [13]
  relative resistance: 18.2 -fold
HCT116/dtxB cells; HCT116/dtxB (unsel.), removed from drug selection for one month, 72 h, mean
  IC50: > 100000 nM
HCT116/dtxB cells; HCT116/dtxB vs HCT116/wt, month 4 after selection start
  relative resistance: 4.4 -fold
HCT116/dtxB cells; HCT116/dtxB vs HCT116/wt, month 6 after selection start
  relative resistance: 4.2 -fold
HCT116/dtxB cells; HCT116/dtxB vs HCT116/wt, month 8 after selection start
  relative resistance: > 25 -fold
HCT116/dtxB cells; HCT116/dtxB vs HCT116/wt, month 12 after selection start
  relative resistance: > 40 -fold
HCT116/dtxB cells; [12]
  IC50: > 100000 nM
HCT116/dtxB cells; [14]
  relative resistance: >40 -fold

## CC(C)n1c(/C=C/C(O)CC(O)CC(=O)O)c(-c2ccc(F)cc2)c2ccccc21 (stereo not drawn) [fluvastatin, fluvastatin sodium salt hydrate]
HCT116/dtxA cells [9]; [15]
  combination index (CI) in combination with dtxA: smaller than 1
MCF7
  effect on cytotoxic activity of dtxA: augmented
Parental HCT116
  effect on cytotoxic activity of dtxA: augmented
BT20
  effect on cytotoxic activity of dtxA: augmented

## CC[C@H](C)C(=O)O[C@H]1C[C@@H](C)C=C2C=C[C@H](C)[C@H](CC[C@@H]3C[C@@H](O)CC(=O)O3)[C@H]21 [lovastatin, lovastatin (Mevinolin)]
HCT116/dtxA cells [9]; [15]
  combination index (CI) in combination with dtxA: smaller than 1
Parental HCT116
  effect on cytotoxic activity of dtxA: augmented

## COc1ccc(CCN(C)CCCC(C#N)(c2ccc(OC)c(OC)c2)C(C)C)cc1OC (stereo not drawn) [verapamil]
HCT116/dtxE cells [10]
  sensitivity of HCT116/dtxE cells towards dtxE on co-incubation: partly restored

## CC[C@]1(O)C[C@H]2CN(CCc3c([nH]c4ccccc34)[C@@](C(=O)OC)(c3cc4c(cc3OC)N(C=O)[C@H]3[C@@](O)(C(=O)OC)[C@H](OC(C)=O)[C@]5(CC)C=CCN6CC[C@]43[C@@H]65)C2)C1 [vincristine]
HCT116/dtxE cells [1]; HCT116/dtxE vs HCT116/wt, 72 h
  cytotoxic activity compared to parental cells: significantly reduced cytotoxic activity
HCT116/dtxA cells [2]; HCT116/dtxA vs HCT116/wt, 72 h
  cytotoxic activity compared to parental cells (reduction): absent
HCT116/dtxB cells; HCT116/dtxB vs HCT116/wt, 72 h
  cytotoxic activity compared to parental cells (reduction): very weak

## O=P(O)(O)C(O)(Cn1ccnc1)P(=O)(O)O [zoledronic acid, zoledronic acid monohydrate]
HCT116/dtxA cells [9]
  combination index (CI) in combination with dtxA: smaller than 1
MCF7
  effect on cytotoxic activity of dtxA: augmented
Parental HCT116
  effect on cytotoxic activity of dtxA: augmented
BT20
  effect on cytotoxic activity of dtxA: augmented
